The target in one assay is T1, Bug69 (Bordetella pertussis, UniProt Q7VUA0).
T1 construct: gene BP3219; mature periplasmic domain, signal peptide omitted, pET28c NcoI/XhoI, C-terminal His tag kept; E. coli BL21(DE3); denatured and renatured to remove endogenous ligands
T1 sequence (Q7VUA0 32-332): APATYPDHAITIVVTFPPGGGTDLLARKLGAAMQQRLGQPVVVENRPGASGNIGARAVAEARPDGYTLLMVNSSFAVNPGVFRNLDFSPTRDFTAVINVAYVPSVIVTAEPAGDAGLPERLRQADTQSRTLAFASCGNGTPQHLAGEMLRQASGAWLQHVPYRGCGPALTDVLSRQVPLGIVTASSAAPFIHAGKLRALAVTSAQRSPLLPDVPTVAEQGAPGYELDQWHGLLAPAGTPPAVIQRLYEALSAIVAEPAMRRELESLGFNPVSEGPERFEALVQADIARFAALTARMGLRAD
Kind of assay: intrinsic tryptophan fluorescence quenching titration. It is filed as binding. Particulars: 20 °C; 0.1 μM protein; excitation 295 nm, fit at 328 nm.

A further assay deals with T2, Bug27 (Bordetella pertussis, UniProt Q7W019).
T2 construct: gene BP0682; mature periplasmic domain, signal peptide omitted, pET28c NcoI/HindIII, C-terminal His tag kept; E. coli BL21(DE3); denatured and renatured to remove endogenous ligands
T2 sequence (Q7W019 30-330): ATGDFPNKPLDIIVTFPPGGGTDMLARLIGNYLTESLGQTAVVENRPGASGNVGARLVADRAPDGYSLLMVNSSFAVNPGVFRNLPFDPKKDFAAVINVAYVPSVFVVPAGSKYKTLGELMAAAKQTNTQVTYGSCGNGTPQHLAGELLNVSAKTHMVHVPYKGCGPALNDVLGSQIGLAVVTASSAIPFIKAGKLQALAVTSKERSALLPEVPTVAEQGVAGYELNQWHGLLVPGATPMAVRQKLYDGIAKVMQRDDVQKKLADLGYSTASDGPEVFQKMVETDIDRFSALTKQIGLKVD
Described as above. It is filed as binding.

The structures appear in SMILES notation.

Usually Kd stands for the free concentration of one partner at which half of the binding sites on the other are occupied at equilibrium, for simple one-to-one binding. Higher therefore signals weaker binding.

Regarding `O=C(O)c1cccnc1C(=O)O` [quinolinate], the figures for the Kd on Bug69 and at Bug27 were 70 ± 22 nM and 136 ± 28 nM, respectively.

These data come from paper PMC11452294, “Periplasmic binding proteins Bug69 and Bug27 from Bordetella pertussis are in vitro high‐affinity quinolinate binders with a potential role in NAD biosynthesis” (FEBS Open Bio, 2024).
